Experiment [1] relates to Mycolicibacterium smegmatis. Nature of the experiment: Antimycobacterial activity against Mycobacterium smegmatis MC2 by agar dilution method. In kind it is functional. (In agar dilution, organisms are placed on agar that contains the substance at set levels.)
In experiment [2] the test system is Mycobacterium tuberculosis. Nature of the experiment: Antimycobacterial activity against Mycobacterium tuberculosis H37Rv by agar dilution method. In kind it is functional.
Experiment [3] relates to Vero. The experiment is described as follows: Cytotoxicity against african green monkey Vero cells after 72 hrs by MTT assay. In kind it is cell-based. The following applies: Chlorocebus sabaeus. A general note: Formazan colour is commonly taken as a measure of viable cells.

The structures appear in SMILES notation. Values after ≈ are worked out from the molar mass of the structure shown.

As usually defined, the MIC is the least concentration at which growth counts as inhibited. Turning to `CN1C/C(=C\c2ccc(F)cc2)C(=O)[C@]2(C1)[C@@H](c1ccc(F)cc1)CN(C)[C@@]21C(=O)Nc2ccccc21`, the minimum inhibitory concentration (MIC) in experiment [1] amounted to 50.1 µg/mL (≈ 100 µM); in experiment [2] it was 6.27 µg/mL (≈ 12.6 µM).

With `CN1C/C(=C\c2ccc(Cl)cc2Cl)C(=O)[C@]2(C1)[C@@H](c1ccc(Cl)cc1Cl)[C@@H]1CCCN1[C@@]21C(=O)Nc2ccccc21` (racemic), the MIC in experiment [1] was determined as 79.7 µg/mL (≈ 127 µM); in experiment [2] it was 19.9 µg/mL (≈ 31.8 µM).

As a reminder, the IC50 is the point on the concentration scale where inhibition reaches its midpoint. Molecule `CN1C/C(=C\c2cccs2)C(=O)[C@]2(C1)[C@@H](c1cccs1)CN(C)[C@@]21C(=O)Nc2ccccc21` (racemic) came in with a half-maximal inhibitory concentration (IC50) in experiment [3] of 132 µM. Further, the MIC was 6.59 µg/mL (≈ 13.9 µM) in experiment [1] and 1.64 µg/mL (≈ 3.45 µM) in experiment [2].

For the molecule `CN1C/C(=C\c2ccco2)C(=O)[C@]2(C1)[C@@H](c1ccco1)[C@@H]1CCCN1[C@@]21C(=O)Nc2ccccc21` (racemic), the values for the MIC in experiment [1] and in experiment [2] were 107 µg/mL (≈ 227 µM) and 53.3 µg/mL (≈ 114 µM), respectively.

Molecule `CN1C/C(=C\c2ccccc2Cl)C(=O)[C@]2(C1)[C@@H](c1ccccc1Cl)CN(C)[C@@]21C(=O)Nc2ccccc21` (racemic) registered an IC50 in experiment [3] of 117 µM. The results for the MIC in experiment [1] and in experiment [2] were 1.47 µg/mL (≈ 2.76 µM) and 0.17 µg/mL (≈ 0.319 µM), respectively.

`CN1C/C(=C\c2cccc(F)c2)C(=O)[C@]2(C1)[C@@H](c1cccc(F)c1)CN(C)[C@@]21C(=O)Nc2ccccc21` (racemic) came in with an IC50 in experiment [3] of 125 µM. In addition, the values for the minimum inhibitory concentration (MIC) in experiment [1] and in experiment [2] were 6.27 µg/mL (≈ 12.6 µM) and 1.56 µg/mL (≈ 3.12 µM), respectively.

For the molecule `CN1C/C(=C\c2ccc(Cl)cc2)C(=O)[C@]2(C1)[C@@H](c1ccc(Cl)cc1)[C@@H]1CCCN1[C@@]21C(=O)Nc2ccccc21` (racemic), the results for the MIC in experiment [1] and in experiment [2] were 90.9 µg/mL (≈ 163 µM) and 22.7 µg/mL (≈ 40.7 µM), respectively.

Consider `CN1C/C(=C\c2ccc(Cl)cc2Cl)C(=O)[C@]2(C1)[C@@H](c1ccc(Cl)cc1Cl)CN(C)[C@@]21C(=O)Nc2ccccc21` (racemic), for which the IC50 in experiment [3] worked out at 104 µM. For the same molecule, the MIC was 5.21 µg/mL (≈ 8.66 µM) in experiment [1] and 1.29 µg/mL (≈ 2.15 µM) in experiment [2].

Turning to `CN1C/C(=C\c2ccco2)C(=O)[C@]2(C1)[C@@H](c1ccco1)[C@H](c1ccccc1)N[C@@]21C(=O)Nc2ccccc21` (racemic), the MIC in experiment [1] came to 49.5 µg/mL (≈ 97.9 µM); in experiment [2] it was 24.8 µg/mL (≈ 49 µM).

`CN1C/C(=C\c2cccc(F)c2)C(=O)[C@]2(C1)[C@@H](c1cccc(F)c1)[C@H](c1ccccc1)N[C@@]21C(=O)Nc2ccccc21` (racemic) gave an IC50 in experiment [3] of 111 µM. Also, the MIC in experiment [1] turned out to be 5.58 µg/mL (≈ 9.94 µM); in experiment [2], 2.78 µg/mL (≈ 4.95 µM).

In the case of `CN1C/C(=C\c2ccc(Cl)cc2Cl)C(=O)[C@]2(C1)[C@@H](c1ccc(Cl)cc1Cl)[C@H](c1ccccc1)N[C@@]21C(=O)Nc2ccccc21` (racemic), in experiment [3], inhibition was half-maximal at 94.3 µM (IC50). In addition, the MIC in experiment [1] stood at 9.43 µg/mL (≈ 14.2 µM); in experiment [2], 2.35 µg/mL (≈ 3.54 µM).

As for `CN1C/C(=C\c2ccc(Cl)cc2)C(=O)[C@]2(C1)[C@@H](c1ccc(Cl)cc1)[C@H](c1ccccc1)N[C@@]21C(=O)Nc2ccccc21` (racemic), the minimum inhibitory concentration (MIC) was found to be 42.1 µg/mL (≈ 70.8 µM) in experiment [1] and 5.27 µg/mL (≈ 8.86 µM) in experiment [2].

On to `COc1ccc(/C=C2\CN(C)C[C@@]3(C2=O)[C@@H](c2ccc(OC)cc2)[C@@H]2CCCN2[C@@]32C(=O)Nc3ccccc32)cc1` (racemic), for which the values for the MIC in experiment [1] and in experiment [2] were 45.5 µg/mL (≈ 82.8 µM) and 5.7 µg/mL (≈ 10.4 µM), respectively.

`COc1ccccc1/C=C1\CN(C)C[C@@]2(C1=O)[C@@H](c1ccccc1OC)[C@H](c1ccccc1)N[C@@]21C(=O)Nc2ccccc21` (racemic) came in with an IC50 in experiment [3] of 107 µM. Moreover, the MIC in experiment [1] and in experiment [2] was 1.33 µg/mL (≈ 2.27 µM) in each case.

Regarding `CN1C/C(=C\c2ccccc2Cl)C(=O)[C@]2(C1)[C@@H](c1ccccc1Cl)[C@H](c1ccccc1)N[C@@]21C(=O)Nc2ccccc21` (racemic), 105 µM corresponded to half-maximal inhibition in experiment [3] (IC50). The MIC in experiment [1] stood at 10.5 µg/mL (≈ 17.7 µM); in experiment [2] it was 2.63 µg/mL (≈ 4.42 µM).

With `CN1C/C(=C\c2cccc3ccccc23)C(=O)[C@]2(C1)[C@@H](c1cccc3ccccc13)CN(C)[C@@]21C(=O)Nc2ccccc21` (racemic), the MIC was 22.2 µg/mL (≈ 39.4 µM) in experiment [1] and 11.1 µg/mL (≈ 19.7 µM) in experiment [2].

`Cc1ccccc1/C=C1\CN(C)C[C@@]2(C1=O)[C@@H](c1ccccc1C)[C@H](c1ccccc1)N[C@@]21C(=O)Nc2ccccc21` (racemic) gave an IC50 in experiment [3] of 113 µM. Also, the minimal inhibitory concentration (MIC) in experiment [1] amounted to 11.3 µg/mL (≈ 20.4 µM); in experiment [2], 2.82 µg/mL (≈ 5.09 µM).

With `CN1C/C(=C\c2cccc3ccccc23)C(=O)[C@]2(C1)[C@@H](c1cccc3ccccc13)[C@H](c1ccccc1)N[C@@]21C(=O)Nc2ccccc21` (racemic), the values for the minimum inhibitory concentration (MIC) in experiment [1] and in experiment [2] were 20 µg/mL (≈ 32 µM) and 5.01 µg/mL (≈ 8.01 µM), respectively.

In the case of `CN1C/C(=C\c2cccs2)C(=O)[C@]2(C1)[C@@H](c1cccs1)[C@H](c1ccccc1)N[C@@]21C(=O)Nc2ccccc21` (racemic), the MIC in experiment [1] and in experiment [2] was 11.6 µg/mL (≈ 21.6 µM) in each case.

In the case of `CN1C/C(=C\c2cccc(F)c2)C(=O)[C@]2(C1)[C@@H](c1cccc(F)c1)[C@@H]1CCCN1[C@@]21C(=O)Nc2ccccc21` (racemic), the MIC was 23.8 µg/mL (≈ 45.3 µM) in experiment [1] and 5.96 µg/mL (≈ 11.3 µM) in experiment [2].

For the molecule `Cc1ccc(/C=C2\CN(C)C[C@@]3(C2=O)[C@@H](c2ccc(C)cc2)CN(C)[C@@]32C(=O)Nc3ccccc32)cc1` (racemic), the figures for the MIC in experiment [1] and in experiment [2] were 50.9 µg/mL (≈ 104 µM) and 6.37 µg/mL (≈ 13 µM), respectively.

For `CN1C/C(=C\c2ccccc2)C(=O)[C@]2(C1)[C@@H](c1ccccc1)[C@@H]1CCCN1[C@@]21C(=O)Nc2ccccc21` (racemic), the MIC was 102 µg/mL (≈ 209 µM) in experiment [1] and 25.6 µg/mL (≈ 52.2 µM) in experiment [2].

In turn, `COc1ccc(/C=C2\CN(C)C[C@@]3(C2=O)[C@@H](c2ccc(OC)cc2)CN(C)[C@@]32C(=O)Nc3ccccc32)cc1` (racemic) had an IC50 in experiment [3] of 120 µM. Besides, the MIC in experiment [1] amounted to 2.98 µg/mL (≈ 5.69 µM); in experiment [2], 0.75 µg/mL (≈ 1.43 µM).

For the molecule `Cc1ccc(/C=C2\CN(C)C[C@@]3(C2=O)[C@@H](c2ccc(C)cc2)[C@@H]2CCCN2[C@@]32C(=O)Nc3ccccc32)cc1` (racemic), the MIC in experiment [1] was 24.2 µg/mL (≈ 46.7 µM); in experiment [2], 12.1 µg/mL (≈ 23.4 µM).

Turning to `Cc1ccccc1/C=C1\CN(C)C[C@@]2(C1=O)[C@@H](c1ccccc1C)[C@@H]1CCCN1[C@@]21C(=O)Nc2ccccc21` (racemic), the MIC in experiment [1] is 24.2 µg/mL (≈ 46.7 µM); in experiment [2], 12.1 µg/mL (≈ 23.4 µM).

`COc1ccccc1/C=C1\CN(C)C[C@@]2(C1=O)[C@@H](c1ccccc1OC)CN(C)[C@@]21C(=O)Nc2ccccc21` (racemic) yielded an IC50 in experiment [3] of 120 µM. Moreover, the MIC in experiment [1] worked out at 2.98 µg/mL (≈ 5.69 µM); in experiment [2] it was 0.36 µg/mL (≈ 0.688 µM).

As to `CN1C/C(=C\c2ccc(Cl)cc2)C(=O)[C@]2(C1)[C@@H](c1ccc(Cl)cc1)CN(C)[C@@]21C(=O)Nc2ccccc21` (racemic), in experiment [3], the midpoint of inhibition, the IC50, lay at 117 µM. The MIC in experiment [1] worked out at 5.88 µg/mL (≈ 11 µM); in experiment [2] it was 2.93 µg/mL (≈ 5.5 µM).

Take `CN1C/C(=C\c2ccccc2)C(=O)[C@]2(C1)[C@@H](c1ccccc1)CN(C)[C@@]21C(=O)Nc2ccccc21` (racemic): the MIC was 54 µg/mL (≈ 116 µM) in experiment [1] and 13.5 µg/mL (≈ 29.1 µM) in experiment [2].

For `CN1C/C(=C\c2ccco2)C(=O)[C@]2(C1)[C@@H](c1ccco1)CN(C)[C@@]21C(=O)Nc2ccccc21` (racemic), half-maximal inhibition in experiment [3] (IC50) required 141 µM. In addition, the MIC in experiment [1] stood at 0.88 µg/mL (≈ 1.98 µM); in experiment [2] it was 1.76 µg/mL (≈ 3.97 µM).

On to `Cc1ccccc1/C=C1\CN(C)C[C@@]2(C1=O)[C@@H](c1ccccc1C)CN(C)[C@@]21C(=O)Nc2ccccc21` (racemic), for which the IC50 in experiment [3] turned out to be 127 µM. The minimal inhibitory concentration (MIC) in experiment [1] was determined as 1.59 µg/mL (≈ 3.23 µM); in experiment [2], 0.39 µg/mL (≈ 0.793 µM).

In turn, `O=C(O)c1cn(C2CC2)c2cc(N3CCNCC3)c(F)cc2c1=O` [CIPROFLOXACIN] showed an MIC in experiment [1] of 2.35 µg/mL (≈ 7.09 µM).
